{"source": "patent US6020363A", "about": "“Isocoumarin derivatives and use thereof in drugs” (Mercian Corporation, priority 1998, dated 2000)", "key": {"[1]": {"tested_on": "cyclooxygenase (or prostaglandin endoperoxide synthase)", "assay": "Effect on cyclooxygenase activity", "assay_type": "biochemical, sheep", "method": "The inhibitory effect of Compound 3 on cyclooxygenase (or prostaglandin endoperoxide synthase) activity was tested according to the method of Evans et al. (Biochemical Pharmacology, 36: 2035-2037, 1987). Specifically, an enzyme preparation derived from the seminal vesicles of sheep was incubated at 27° C. for 1.5 minutes in the presence of 500 μM arachidonic acid and 300 μM Compound 3. After the reaction was stopped by adding trichloroacetic acid to the reaction mixture, its absorbance was measured at 532 nm."}, "[2]": {"assay": "Levels of Orally Administered Test Compounds in Blood Plasma", "assay_type": "in vivo, male ICR mice", "settings": "oral 25 mg/kg", "method": "Each of Compound 3 and MI43 was orally administered to fasted male ICR mice (weighing 18-21 g) in a dose of 25 mg/kg. Blood samples were collected from the mice 5 minutes, 30 minutes, 4 hours, 8 hours and 24 hours after administration (3 mice per point for Compound 3 and 5 mice per point for MI43). These blood samples were centrifuged to obtain blood plasma samples. Each of the blood plasma samples was subjected to the following pretreatment and then analyzed by high-performance liquid chromatography (HPLC). 1.8 ml of a saturated aqueous solution of ammonium sulfate and 1.0 ml of methanol were added to and mixed with 0.2 ml of the blood plasma sample. This mixture was shaken with 3.5 ml of ethyl acetate. After this mixture was centrifuged, the ethyl acetate layer was separated. Moreover, the aqueous layer was shaken with 3.5 ml of ethyl acetate, followed by centrifugation. The ethyl acetate layer thus obtained was combined with the previously separated ethyl acetate layer, and this mixture was evaporated to dryness under reduced pressure. The resulting residue was redissolved in 0.2 ml of a 50% aqueous solution of acetonitrile and used as a sample for HPLC.\nThe analytical conditions for HPLC (using the CCTD system manufactured by Toso Co., Ltd.) were as follows: A YMC A-312 column (ODS 6×150 mm; manufactured by YMC Co., Ltd.) was used as the column. As the mobile phase, a 60:40 mixture of acetonitrile and 0.1% aqueous TFA was used for Compound 3, and a 40:60 mixture of acetonitrile and 0.1% aqueous TFA was used for MI43. The rest compound was eluted at a flow velocity of 1.0 ml/min and detected by UV light at 244 nm."}, "5-lipoxygenase": {"tested_on": "5-lipoxygenase", "assay": "Effect on 5-lipoxygenase activity", "assay_type": "biochemical, rats", "method": "Moreover, its inhibitory effect on 5-lipoxygenase was tested according to the method of Egan et al. (Journal of Biological Chemistry, 260: 11554-11559, 1985). Specifically, an enzyme preparation derived from the basophilic leukemia cells (RBL-1) of rats was used. This enzyme preparation, together with 30 μM Compound 3, was incubated at room temperature for 5 minutes, followed by the addition of linolenic acid. Thereafter, this mixture was incubated at room temperature for 8 minutes. After the reaction was stopped by the addition of a sodium hydroxide solution, its absorbance was measured at 234 nm."}, "[3]": {"parameters": "species or system DBA/1J mice", "settings": "mouse, in vivo, po, 30 mg/kg", "method": "Among the compounds in accordance with the present invention, each of Compounds 1, 2 and 3 was orally or intraperitoneally administered to eight DBA/1J mice in a dose of 100 mg/kg body weight. […] This seems to indicate that the compounds used in the present invention have no or very little, if any, acute toxicity. Moreover, Compound 1, in a dose of 100 mg/kg body weight, or Compound 3, in a dose of 30 mg/kg body weight, was orally administered to eight mice of the aforesaid strain for 40 days. […] Thus, the compounds of the present invention have little subacute toxicity. Since other compounds in accordance with the present invention are estimated to have similar properties, the compounds of the present invention can be used very safely."}, "carrageenin edema": {"tested_on": "carrageenin edema", "assay": "Effect on Carrageenin Edema", "assay_type": "in vivo, ICR mice", "settings": "for Degree of edema (%): 2 h after carrageenin, mean ± SE, control 47.4 ± 2.8", "method": "The effect on carrageenin edema was tested by using ICR mice in groups of 6-7. Specifically, Compound 3 was orally administered thereto in a dose of 3 or 30 mg/kg body weight. As a positive control drug, indomethacin was similarly administered in a dose of 20 mg/kg body weight. After 30 minutes, 25 μl of a 1% carrageenin solution was subcutaneously injected into the sole of the right hind leg. Two hours after the administration of carrageenin, the thickness of the sole was measured with digital vernier calipers, and the degree of edema (%) based on the thickness measured before administration was calculated."}, "[4]": {"tested_on": "neogenesis of tumor vessels induced by the transplanted mouse tumor S180", "assay": "Inhibitory Effect on Vascularization Using the Mouse Back Subcutaneous Transplantation Method", "assay_type": "in vivo, male ICR mouse", "settings": "for Vascularization score: 5 days, mean ± SE, control 2.93 ± 0.07", "method": "The inhibitory effect of Compounds 1 and 3 in accordance with the present invention on the neogenesis of tumor vessels induced by the transplanted mouse tumor S180 was tested using the mouse back subcutaneous transplantation method. Specifically, 1×10^7 S180 cells were injected into a chamber formed by attaching a Millipore filter having a pore size of 0.45 μm to either side of a Millipore ring. After the injection hole was stopped up, this chamber was transplanted into an air sac formed beneath the skin of the back of a male ICR mouse (9-10 weeks old). Starting from the day of transplantation, a test compound or a solvent control comprising a 0.5% carboxymethylcellulose solution was orally administered for 5 days. After the skin was separated on the fifth day of transplantation, an O-ring of 10 mm internal diameter having the same shape as the Millipore ring was placed on the part of the skin which had been in contact with the chamber, observed under a stereoscopic microscope, and photographed.\nIn the photographs so taken, the degree of vascularization was rated 0, 1, 2 or 3 according to the number of 3 mm or longer tortuous blood vessels characteristic of tumoral vessels, and scored on the following basis.\n0: No tumoral vessel was observed.\n1: One tumoral vessel was observed.\n2: Two tumoral vessels were observed.\n3: Three or more tumoral vessels were observed."}}}
{"smiles": "COc1cc(O)c2c(=O)oc(C(C)C(=O)O)cc2c1", "note": "(stereo not shown) [Compound 3, 2-(8-hydroxy-6-methoxy-1-oxo-1H-2-benzopyran-3-yl)propionic Acid]", "values": [{"measurement": "inhibitory effect on cyclooxygenase (in words)", "setting": "[1]; 30 μM or 300 μM", "value": "no inhibitory effect on cyclooxygenase or lipoxygenase"}, {"measurement": "Degree of inhibition (%), Cyclooxygenase", "setting": "[1]; 300 μM Compound 3, 500 μM arachidonic acid, n = 2", "value": -4.0, "unit": "%"}, {"measurement": "concentration at 5 min", "setting": "[2]; mouse, plasma, 5 min, read-out: Concentration of unchanged Compound 3 in blood plasma, mean", "value": 123, "unit": "µg/mL"}, {"measurement": "concentration at 0.5 h", "setting": "[2]; mouse, plasma, 30 min, read-out: Concentration of unchanged Compound 3 in blood plasma, mean", "value": 131, "unit": "µg/mL"}, {"measurement": "concentration at 4 h", "setting": "[2]; mouse, plasma, 4 hr, read-out: Concentration of unchanged Compound 3 in blood plasma, mean", "value": 63, "unit": "µg/mL"}, {"measurement": "concentration at 8 h", "setting": "[2]; mouse, plasma, 8 hr, read-out: Concentration of unchanged Compound 3 in blood plasma, mean", "value": 38.4, "unit": "µg/mL"}, {"measurement": "concentration at 24 h", "setting": "[2]; mouse, plasma, 24 hr, read-out: Concentration of unchanged Compound 3 in blood plasma, mean", "value": 0.19, "unit": "µg/mL"}, {"measurement": "Tmax", "setting": "[2]; mouse, plasma, unchanged compound, read-out: time of peak / highest plasma level after administration (converted)", "value": 30, "unit": "min"}, {"measurement": "plasma concentration after 8 hours (in words)", "setting": "[2]; 8 hr", "value": "remained high even after 8 hours"}, {"measurement": "plasma concentration after 24 hours (in words)", "setting": "[2]; 24 hr", "value": "dropped to a vary low level after 24 hours"}, {"measurement": "Degree of inhibition (%), 5-Lipoxygenase", "setting": "5-lipoxygenase; 30 μM Compound 3, n = 2", "value": 21.0, "unit": "%"}, {"measurement": "inhibitory effect on lipoxygenase (in words)", "setting": "5-lipoxygenase; 30 μM or 300 μM", "value": "no inhibitory effect on cyclooxygenase or lipoxygenase"}, {"measurement": "evidence of toxicity, 40 days", "setting": "[3]", "value": "no animal showed evidences of toxicity"}, {"measurement": "mortality, 40 days", "setting": "[3]", "value": "No animal died"}, {"measurement": "effect on carrageenin edema (in words)", "setting": "carrageenin edema; doses of 3 and 30 mg/kg", "value": "no inhibitory effect on carrageenin edema"}, {"measurement": "Degree of edema (%)", "setting": "carrageenin edema; oral 3 mg/kg", "value": "41.7 ± 3.1", "unit": "%"}, {"measurement": "Degree of edema (%)", "setting": "carrageenin edema; oral 30 mg/kg", "value": "46.1 ± 4.2", "unit": "%"}, {"measurement": "Vascularization score", "setting": "[4]; oral 0.3 mg/kg, n = 10", "value": "2.40 ± 0.4"}, {"measurement": "Vascularization score", "setting": "[4]; oral 1.0 mg/kg, n = 11", "value": "1.55 ± 0.43"}, {"measurement": "Vascularization score", "setting": "[4]; oral 3 mg/kg, n = 14", "value": "0.86 ± 0.33"}, {"measurement": "Vascularization score", "setting": "[4]; oral 10 mg/kg, n = 14", "value": "0.86 ± 0.38"}, {"measurement": "inhibition of vascularization induced by tumor cell S180 (in words)", "setting": "[4]; oral, 1-10 mg/kg body weight", "value": "significantly inhibited vascularization"}]}
